# From the SangsterLogP compilation
row,logP,SMILES
1,2.86,CCCCCCCCNC(=C[N+](=O)[O-])NS(=O)(=O)c1cnccc1NCCCCCCCC
2,1.99,CCCCCCCNc1ccncc1S(=O)(=O)NC(=C[N+](=O)[O-])NCCCCCC
3,1.67,CCCCCCNC(=C[N+](=O)[O-])NS(=O)(=O)c1cnccc1NCCCCCC
4,2.3,CCCCCCCNC(=C[N+](=O)[O-])NS(=O)(=O)c1cnccc1NCCCCCCC
5,1.97,CCCCCCCNC(=C[N+](=O)[O-])NS(=O)(=O)c1cnccc1NCCCCCC
6,2.31,CCCCCCCCNc1ccncc1S(=O)(=O)NC(=C[N+](=O)[O-])NCCCCCC
7,2.27,CCCCCCCCNC(=C[N+](=O)[O-])NS(=O)(=O)c1cnccc1NCCCCCC
8,2.59,CCCCCCCCNc1ccncc1S(=O)(=O)NC(=C[N+](=O)[O-])NCCCCCCC
9,1.59,O=[N+]([O-])C=C(NC1CCCCC1)NS(=O)(=O)c1cnccc1NC1CCCCC1
10,-0.48,CCNc1ccncc1S(=O)(=O)NC(=C[N+](=O)[O-])NC(C)C
11,1.66,CCCCCCNC(=C[N+](=O)[O-])NS(=O)(=O)c1cnccc1Nc1cccc(C)c1
